Assay results reported in PMC12406192, “Sustainable Joullié–Ugi and Continuous Flow Implementation Led to Novel Captopril-Inspired Broad-Spectrum Metallo-β-Lactamase Inhibitors” (Journal of Medicinal Chemistry, 2025).
“And” between values parts separate entries of the source, which are not always exact repeats. Equal entries are not always repeated. “Also recorded” adds a separate entry of the source. Marks after values point to notes of the source that are not given here.

Key:
IMP-7 = IMP-7 (Pseudomonas aeruginosa, UniProt Q93AU3); experiment: Kinetic fluorescence-based in vitro assay with fluorocillin substrate (IC50); assay type: biochemical; settings: 30 min preincubation
Experimental: (§1) IC50 values were determined in a kinetic fluorescence-based in vitro assay as described previously. All compounds were preincubated with the recombinant protein for 30 min before addition of the fluorogenic substrate fluorocillin. , The inhibitory activity was also determined (expressed as the percentage of inhibition in the presence of 50 μM compound) using a spectrophotometric assay in which the hydrolysis of imipenem (the reporter substrate) was monitored (see Section for details).
(§2) The inhibitory activity of the compounds was determined using enzyme assays with recombinant NDM-1, VIM-1, VIM-2, IMP-1, and IMP-7. These enzymes were produced in E. coli and purified as previously described. , The fluorogenic substrate fluorocillin was synthesized according to the procedure described by Rukavishnikov et al. The assays were performed in 96-well format using black polystyrene plates (Corning, Corning, NY) at room temperature, and the measurements were carried out on the Tecan spectrophotometer Infinite F200 PRO (Tecan, Männedorf, Switzerland). The protein stock solutions were diluted in assay buffer (HEPES 50 mM, pH 7.5 containing 0.01%Triton X-100, buffer HX) to reach final concentrations of VIM-1–4 nM, IMP-7–0.1 nM; NDM-1–3 nM. Subsequently, 89 μL of the protein solution was mixed with 1 μL of the inhibitor diluted in DMSO (final DMSO concentration 1% at final assay volume of 100 μL) and incubated for 30 min. […] Negative controls were measured in the absence of enzyme (89 μL of assay buffer), whereas the positive controls were measured in the presence of enzyme and in the absence of inhibitors (1 μL of DMSO). Each measurement was performed in triplicate in three independent experiments. IC50 values were calculated using data obtained from measurements with at least eight different inhibitor concentrations, applying a sigmoidal dose–response (variable slope with four parameters) equation using GraphPad Prism 5 (GraphPad Software, La Jolla, CA) software. […] All assays were performed in at least in triplicate.

NDM-1 [1] = target: T1, NDM-1 (Klebsiella pneumoniae, UniProt C7C422); experiment: as above; assay type: biochemical; settings: 30 min preincubation
T1 construct: made in house; host or cells: E. coli
Experimental: as §1, §2

VIM-1 = target: T2, VIM-1 (Pseudomonas aeruginosa, UniProt A0A0F7KYQ8); experiment: as above; assay type: biochemical
T2 construct: made in house; host or cells: E. coli
Experimental: as §1, §2

NDM-1 [2] = target: T1, NDM-1; experiment: Spectrophotometric direct competition assay, imipenem hydrolysis (reporter substrate); assay type: biochemical; settings: for Ki: competitive model, imipenem reporter substrate, read-out: K i NDM-1; for inhibition at 50 µM: read-out: percentage of inhibition NDM-1
Experimental: as §1, §2

IMP-1 = target: T3, IMP-1 (Serratia marcescens, UniProt P52699); experiment: biochemical; settings: for inhibition at 50 µM: read-out: percentage of inhibition IMP-1
T3 construct: made in house; host or cells: E. coli
Experimental: as §1, §2

VIM-2 [3] = target: T4, VIM-2 (Escherichia coli, UniProt Q5U7L7); experiment: biochemical; settings: read-out: percentage of inhibition VIM-2
T4 construct: made in house; host or cells: E. coli
Experimental: as §1, §2

[4] = target: T5, human angiotensin-converting enzyme 1 (ACE-1) (Homo sapiens, UniProt P12821); experiment: ACE Activity Assay Kit, fluorogenic substrate; assay type: biochemical; settings: for inhibition at 50 µM: 50 μM inhibitor
T5 construct: purchased Sigma-Aldrich CS0002
Experimental: To assess the selectivity of the compounds, their inhibitory activity on human angiotensin-converting enzyme 1 (ACE-1) was performed using the ACE Activity Assay Kit (Sigma-Aldrich cat. No. CS0002). […] Captopril (racemic mixture, D- and L-stereoisomers) was used as control in these experiments.

[5] = tested on: E. coli SI-M001 (bla NDM‑1 +); experiment: Imipenem MIC, broth microdilution, with fixed concentration of compound; assay type: cell-based; settings: compound at 32 μg/mL; median of three experiments
Experimental: (§3) In vitro antimicrobial susceptibility testing was performed according to established standards. […]. The strains used in the study were described elsewhere.

[6] = tested on: K. pneumoniae T2301 (bla NDM‑1 +); experiment: as above; assay type: cell-based; settings: compound at 128 μg/mL; median of three experiments
Experimental: as §3

[7] = tested on: E. coli SI-G001 (bla NDM‑4 +); assay type: cell-based; settings: compound at 32 μg/mL; median of three experiments
Experimental: (§4) In vitro antimicrobial susceptibility testing was performed according to established standards. […] The strains used in the study were described elsewhere.

[8] = tested on: E. coli SI–N003 (bla NDM‑7 +); assay type: cell-based; settings: compound at 32 μg/mL; median of three experiments
Experimental: as §4

[9] = tested on: A. baumannii AC-54/97 (bla IMP‑2 +); experiment: Imipenem MIC, broth microdilution, with fixed concentration of compound; assay type: cell-based; settings: compound at 32 μg/mL; median of three experiments
Experimental: as §4

[10] = tested on: K. pneumoniae 7023 (bla VIM‑1 +); experiment: as above; assay type: cell-based; settings: for imipenem MIC, K. pneumoniae 7023 (bla VIM‑1 +): compound at 32 μg/mL, median of three experiments
Experimental: as §4

[11] = tested on: K. pneumoniae T2216 (bla VIM‑1 +); experiment: as above; assay type: cell-based; settings: compound at 128 μg/mL; median of three experiments
Experimental: as §4

[12] = tested on: K. pneumoniae VA-416/02 (bla VIM‑4 +); experiment: as above; assay type: cell-based; settings: compound at 32 μg/mL; median of three experiments
Experimental: as §4

[13] = tested on: P. aeruginosa T2325 (bla IMP‑1 +); experiment: as above; assay type: cell-based
Experimental: as §4

[14] = tested on: S. marcescens SI-1591 (bla VIM‑2 +); experiment: microbe, parasite or virus in culture; assay type: cell-based; settings: compound at 32 μg/mL; median of three experiments
Experimental: as §4

[15] = tested on: IMP-1 expressing P. aeruginosa (T2325); experiment: Growth inhibition assay (OD600 growth curves); assay type: cell-based
Experimental: (§5) 4 Growth inhibition assay. […] Purple = growth control; red = 6d; blue = imipenem; green = imipenem plus 6d.
(§6) A computerized incubator (Tecan Infinite M200 pro, Crailsheim, Germany) was used to obtain the growth curves over a time course. Optical density (OD600) was measured for evaluating bacterial (i.e., K. pneumoniae NDM-1, P. aeruginosa IMP-1, K. pneumoniae VIM-1) density in suspension. Prior to each experiment, bacteria were cultured to the exponential phase (OD600 = 0.6–0.8) in cation-adjusted Mueller Hinton broth (Becton Dickinson, Heidelberg, Germany). 5 μL of diluted bacterial suspension and 100 μL of cation-adjusted Mueller Hinton broth either with or without imipenem (Arcos Organics, Schwerte, Germany) and/or the MBL inhibitor 6d were added into wells of a 96-well plate to give a final bacterial inoculum of approximately 5 × 10^5 CFU/mL. The temperature was adjusted to 37 °C. A permanent shaking speed of 450 rpm was used and was only interrupted before OD600 measurement. The optical densities of samples were recorded online every 10 min for 24 h.

[16] = tested on: NDM-1 expressing K. pneumoniae (T2301); experiment: Growth inhibition assay (OD600 growth curves); assay type: cell-based
Experimental: as §5, §6

[17] = tested on: VIM-1 expressing K. pneumoniae (T2216); experiment: Growth inhibition assay (OD600 growth curves); assay type: cell-based
Experimental: as §5, §6

VIM-2 [18] = target: T4, VIM-2; experiment: biochemical; settings: for K, VIM-2 / k –2, VIM-2: from dependence of k inact on inhibitor concentration; for Kd: time-dependent inhibitors, measured at steady state, listed in Table 2 as Ki with footnote 'Measured as K d'
[19] = tested on: MBL-producing clinical isolates; experiment: Synergistic activity with imipenem on the whole panel of clinical isolates; assay type: cell-based
Experimental: as §3

[20] = 6d at 128 μg/mL plus imipenem at 0.5 × MIC, 24 h

T3 sequence (P52699 19-246, looked up, species assumed): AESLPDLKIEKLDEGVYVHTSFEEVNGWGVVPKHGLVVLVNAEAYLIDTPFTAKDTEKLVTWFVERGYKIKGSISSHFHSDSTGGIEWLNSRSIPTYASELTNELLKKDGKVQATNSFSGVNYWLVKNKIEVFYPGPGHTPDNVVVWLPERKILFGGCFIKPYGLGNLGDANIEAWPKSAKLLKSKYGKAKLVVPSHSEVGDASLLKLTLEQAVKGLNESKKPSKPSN
T5 sequence (P12821 30-1306): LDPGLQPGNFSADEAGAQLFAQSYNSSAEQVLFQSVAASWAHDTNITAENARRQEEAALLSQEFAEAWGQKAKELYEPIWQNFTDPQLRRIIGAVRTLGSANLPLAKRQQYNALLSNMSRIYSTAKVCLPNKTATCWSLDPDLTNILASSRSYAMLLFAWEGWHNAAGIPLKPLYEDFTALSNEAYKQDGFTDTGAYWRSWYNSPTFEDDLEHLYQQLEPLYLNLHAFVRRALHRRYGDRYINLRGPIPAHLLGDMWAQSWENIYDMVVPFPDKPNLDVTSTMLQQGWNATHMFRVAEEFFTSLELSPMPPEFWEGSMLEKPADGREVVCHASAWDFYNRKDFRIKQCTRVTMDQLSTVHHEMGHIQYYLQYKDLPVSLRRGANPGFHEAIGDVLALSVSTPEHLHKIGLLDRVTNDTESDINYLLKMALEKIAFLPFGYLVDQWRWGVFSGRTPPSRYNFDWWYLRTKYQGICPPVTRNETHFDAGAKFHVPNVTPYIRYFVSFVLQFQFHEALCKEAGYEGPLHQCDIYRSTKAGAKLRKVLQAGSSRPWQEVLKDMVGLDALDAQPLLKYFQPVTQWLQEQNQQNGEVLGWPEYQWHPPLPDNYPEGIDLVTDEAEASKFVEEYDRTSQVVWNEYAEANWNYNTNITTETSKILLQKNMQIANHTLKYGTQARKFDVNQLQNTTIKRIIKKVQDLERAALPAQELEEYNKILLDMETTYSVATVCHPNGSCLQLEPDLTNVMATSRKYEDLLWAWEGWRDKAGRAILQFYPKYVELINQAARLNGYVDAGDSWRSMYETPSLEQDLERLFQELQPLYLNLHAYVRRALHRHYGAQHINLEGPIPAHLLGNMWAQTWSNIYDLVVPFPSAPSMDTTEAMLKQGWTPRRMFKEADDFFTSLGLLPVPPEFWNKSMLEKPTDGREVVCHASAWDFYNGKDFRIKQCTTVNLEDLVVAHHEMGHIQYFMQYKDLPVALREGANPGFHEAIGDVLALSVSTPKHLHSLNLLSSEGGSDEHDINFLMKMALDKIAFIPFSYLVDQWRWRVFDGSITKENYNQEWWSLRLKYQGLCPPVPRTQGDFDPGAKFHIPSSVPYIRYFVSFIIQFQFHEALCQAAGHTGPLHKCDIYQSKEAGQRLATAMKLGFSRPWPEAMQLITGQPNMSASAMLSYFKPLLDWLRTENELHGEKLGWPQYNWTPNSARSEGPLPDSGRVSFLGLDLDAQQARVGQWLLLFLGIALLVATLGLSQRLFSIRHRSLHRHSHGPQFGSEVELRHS
T1 sequence (C7C422 29-270 limits assumed): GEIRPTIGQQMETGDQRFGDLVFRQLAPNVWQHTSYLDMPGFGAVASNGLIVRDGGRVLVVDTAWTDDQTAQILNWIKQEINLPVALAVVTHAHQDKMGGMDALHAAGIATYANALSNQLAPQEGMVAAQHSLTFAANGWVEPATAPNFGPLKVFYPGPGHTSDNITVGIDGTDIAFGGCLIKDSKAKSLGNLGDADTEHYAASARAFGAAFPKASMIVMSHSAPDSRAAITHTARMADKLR
Chain of IMP-7 (Q93AU3 entry or part of it): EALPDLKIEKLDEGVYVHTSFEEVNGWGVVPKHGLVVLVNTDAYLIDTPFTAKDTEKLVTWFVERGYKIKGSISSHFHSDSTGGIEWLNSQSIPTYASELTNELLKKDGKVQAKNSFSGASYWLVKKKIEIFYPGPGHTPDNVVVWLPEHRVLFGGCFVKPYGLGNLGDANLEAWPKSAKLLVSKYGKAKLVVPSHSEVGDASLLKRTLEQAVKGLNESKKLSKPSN

Compound | IC50 (NDM-1 [1]) [nM] | Ki (NDM-1 [2]) [nM] | inhibition at 50 µM (NDM-1 [2]) [%] | inhibition at 50 µM (IMP-1) [%] | inhibition at 50 µM (VIM-2 [3]) [%] | inhibition at 50 µM [4] [%] | imipenem MIC, E. coli SI-M001 (bla NDM‑1 +) [5] [µg/mL] | imipenem MIC, E. coli SI-G001 (bla NDM‑4 +) [7] [µg/mL] | imipenem MIC, E. coli SI–N003 (bla NDM‑7 +) [8] [µg/mL] | imipenem MIC, A. baumannii AC-54/97 (bla IMP‑2 +) [9] [µg/mL] | imipenem MIC, K. pneumoniae 7023 (bla VIM‑1 +) [10] [µg/mL] | imipenem MIC, K. pneumoniae VA-416/02 (bla VIM‑4 +) [12] [µg/mL] | imipenem MIC, S. marcescens SI-1591 (bla VIM‑2 +) [14] [µg/mL] | K, VIM-2 (VIM-2 [18]) [µM] | k –2, VIM-2 (VIM-2 [18]) | Kd (VIM-2 [18]) [nM] | potentiation of imipenem (change of imipenem MIC) on the panel, in words [19] | other results
CCC1(CC)c2ccccc2N(C(=O)[C@H](C)CS)[C@H]1C(N)=O [6d, (R)-3,3-Diethyl-1-((S)-3-mercapto-2-methylpropanoyl)indoline-2-carboxamide] | 3500 | 2600 ± 100 | 90 | 51 | 98 | < 5 | 32 | 32 | 64 | 128 | 16 | 64 | 8 | >30 | 5.0 × 10^–3 s^–1 | 80 ± 10 | – | IC50 (IMP-7): 3300 nM; IC50 (VIM-1): 400 nM; inhibitory activity on ACE-1 (in words) ([4]; tested at 50 μM): negligible activity; also recorded: completely inactive; imipenem MIC, K. pneumoniae T2301 (bla NDM‑1 +) [6]: 16 ^c μg/mL; fold reduction of the imipenem MIC, VIM-1-producing K. pneumoniae isolate ([10]; in combination with imipenem): 8 fold and 4 fold; imipenem MIC, K. pneumoniae T2216 (bla VIM‑1 +) [11]: 2 ^c μg/mL; imipenem MIC, P. aeruginosa T2325 (bla IMP‑1 +) ([13]; compound at 128 μg/mL, median of three experiments): 16 ^c μg/mL; fold reduction of the imipenem MIC, IMP-1-producing P. aeruginosa isolate ([13]; in combination with imipenem): 8 fold and 4 fold; effect on the inhibitory potential of imipenem (growth curves) [15, 20]: further prolonged for several hours; intrinsic antibacterial activity (no activity up to) ([15]; inhibitor alone): > 128 µg/mL; effect on the inhibitory potential of imipenem (growth curves) [16, 20]: further prolonged for several hours; intrinsic antibacterial activity (no activity up to) ([16]; inhibitor alone): > 128 µg/mL; effect on the inhibitory potential of imipenem (growth curves) [17, 20]: further prolonged for several hours; intrinsic antibacterial activity (no activity up to) ([17]; inhibitor alone): > 128 µg/mL
C[C@H](CS)C(=O)N1c2ccccc2C2(CCCCC2)[C@H]1C(N)=O [6e, (S)-1′-((S)-3-Mercapto-2-methylpropanoyl)spiro[cyclohexane-1,3′-indoline]-2′-carboxamide] | 7400 | 2000 ± 100 | 86 | 68 | 97 | < 5 | 32 | 64 | 64 | 128 | 64 | 64 | 16 | – | – | – | unable to reduce the imipenem MIC | Ki (IMP-1; competitive model, imipenem reporter substrate, read-out: K i IMP-1): 3800 ± 300 nM; Ki (VIM-2 [18]; competitive model, imipenem reporter substrate, read-out: K i VIM-2): 100 ± 10 nM
C[C@H](CS)C(=O)N1c2ccccc2C2(CCCCC2)[C@@H]1C(N)=O [6f, (R)-1′-((S)-3-Mercapto-2-methylpropanoyl)spiro[cyclohexane-1,3′-indoline]-2′-carboxamide] | 4800 | 2100 ± 200 | 83 | 38 | 92 | – | 32 | 64 | 64 | 128 | 64 | 128 | 16 | >20 | 2.6 × 10^–3 s^–1 | 160 ± 10 | unable to reduce the imipenem MIC | –
